This note sets out measurements from patent US20240374585A1, “EPITHELIAL SODIUM CHANNEL (ENAC) INHIBITOR CONJUGATES AND METHODS FOR USE THEREOF” (Lung Therapeutics, Inc., priority 2021, published 2024).

Where a SMILES comes first, the peptide text is derived from it. [ ]: non-standard residue; d: D form. The star is where a group is joined. X2 = NC(=NC(=O)c1nc(Cl)c(N)nc1N)NCCCCN1C(=O)CC(*)C1=O; Hyp = O=C(O)[C@@H]1C[C@@H](O)CN1; Ahx = NCCCCCC(=O)O

The target of the first experiment is T1, ENaC (Homo sapiens, UniProt P37088+P51168+P51170).
T1 construct: Primary NHBE cells were isolated from bronchi of normal healthy patients; endogenous in cells; host or cells: primary normal human bronchial epithelial (NHBE) cells, differentiated at air-liquid interface
T1 sequence (P37088 1-669): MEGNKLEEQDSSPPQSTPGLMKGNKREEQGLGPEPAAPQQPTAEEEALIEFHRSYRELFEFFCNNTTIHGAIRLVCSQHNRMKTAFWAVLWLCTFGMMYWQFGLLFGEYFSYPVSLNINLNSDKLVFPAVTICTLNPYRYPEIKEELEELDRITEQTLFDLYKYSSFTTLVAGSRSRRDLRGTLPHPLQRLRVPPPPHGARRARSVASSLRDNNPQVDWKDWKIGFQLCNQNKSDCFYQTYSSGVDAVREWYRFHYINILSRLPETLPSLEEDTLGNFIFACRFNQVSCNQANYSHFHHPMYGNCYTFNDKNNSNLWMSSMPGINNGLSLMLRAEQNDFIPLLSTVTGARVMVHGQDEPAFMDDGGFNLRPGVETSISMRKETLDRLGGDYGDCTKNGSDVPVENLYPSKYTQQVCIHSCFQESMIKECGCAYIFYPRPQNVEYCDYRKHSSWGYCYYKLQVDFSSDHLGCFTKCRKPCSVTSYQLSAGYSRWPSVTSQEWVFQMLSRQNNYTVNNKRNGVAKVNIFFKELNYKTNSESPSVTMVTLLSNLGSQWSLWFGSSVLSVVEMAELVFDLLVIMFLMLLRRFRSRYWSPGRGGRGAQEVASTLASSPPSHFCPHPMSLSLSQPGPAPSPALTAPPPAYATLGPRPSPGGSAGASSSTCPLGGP
T1 sequence (P51168 1-640): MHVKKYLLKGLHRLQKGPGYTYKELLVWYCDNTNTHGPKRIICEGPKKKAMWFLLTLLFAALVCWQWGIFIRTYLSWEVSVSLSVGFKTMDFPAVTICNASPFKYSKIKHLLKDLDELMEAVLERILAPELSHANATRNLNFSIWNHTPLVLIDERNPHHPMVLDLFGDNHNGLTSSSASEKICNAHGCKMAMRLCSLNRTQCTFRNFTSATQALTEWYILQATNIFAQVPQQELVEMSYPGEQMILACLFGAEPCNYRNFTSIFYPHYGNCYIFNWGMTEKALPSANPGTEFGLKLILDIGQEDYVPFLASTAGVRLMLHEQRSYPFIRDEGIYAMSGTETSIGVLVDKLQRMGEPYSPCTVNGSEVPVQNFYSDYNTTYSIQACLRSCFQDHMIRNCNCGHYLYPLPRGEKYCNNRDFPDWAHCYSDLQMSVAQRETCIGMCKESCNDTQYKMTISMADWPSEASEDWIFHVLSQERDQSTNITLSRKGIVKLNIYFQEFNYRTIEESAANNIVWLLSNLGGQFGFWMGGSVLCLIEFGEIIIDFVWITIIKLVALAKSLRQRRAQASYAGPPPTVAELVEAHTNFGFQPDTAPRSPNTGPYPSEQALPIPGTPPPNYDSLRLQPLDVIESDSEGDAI
T1 sequence (P51170 1-649): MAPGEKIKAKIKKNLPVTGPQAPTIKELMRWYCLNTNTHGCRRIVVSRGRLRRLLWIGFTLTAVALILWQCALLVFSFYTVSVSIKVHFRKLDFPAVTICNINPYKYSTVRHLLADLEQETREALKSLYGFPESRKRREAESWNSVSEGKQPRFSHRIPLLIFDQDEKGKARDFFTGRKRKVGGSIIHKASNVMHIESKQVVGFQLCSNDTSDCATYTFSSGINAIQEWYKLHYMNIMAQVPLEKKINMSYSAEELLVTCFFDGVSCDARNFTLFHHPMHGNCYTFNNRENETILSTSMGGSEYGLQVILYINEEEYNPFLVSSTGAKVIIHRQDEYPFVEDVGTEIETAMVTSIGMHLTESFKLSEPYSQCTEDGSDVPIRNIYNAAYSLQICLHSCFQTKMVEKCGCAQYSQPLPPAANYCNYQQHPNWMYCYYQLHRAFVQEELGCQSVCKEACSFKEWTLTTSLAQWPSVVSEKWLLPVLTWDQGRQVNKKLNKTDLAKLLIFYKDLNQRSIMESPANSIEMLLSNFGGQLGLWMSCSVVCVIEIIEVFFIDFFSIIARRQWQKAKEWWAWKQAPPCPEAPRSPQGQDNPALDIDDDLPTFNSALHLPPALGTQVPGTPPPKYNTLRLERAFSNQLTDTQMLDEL
The experiment is described as follows: ENaC inhibition in NHBE cell monolayers, Ussing epithelial voltage clamp (short circuit current). Format: cell-based.
Settings: not given
The protocol:
The objective of this study was to measure the ability of the illustrative conjugates to modulate ion transport function of ENAC in normal human bronchial epithelial (NHBE) cell monolayers. Sodium transport function of ENAC expressed in NHBE monolayers was evaluated using an Ussing epithelial voltage clamp apparatus. See, Hirsh et al., J. Pharmacol. Exp. Ther. 2008; 325:77-88, hereby incorporated by reference in its entirety.
Primary NHBE cells were isolated from bronchi of normal healthy patients, expanded in Lonza media (BEGM™ BulletKit™), and plated on Snapwell™ filters to form an epithelium. Cells on Snapwell™ inserts were grown for at least 21 days in Vertex Differentiation media and exposed to an air-liquid interface to promote differentiation. At least one day before the assay, mucous overlaying the apical surface was removed from the inserts by incubating the apical surface for about 30 minutes with ≥200 μL of differentiation media followed by aspiration of the mucous film and media.
The NHBE cell monolayers grown on Snapwell™ filter inserts were transferred to Physiologic Instruments Ussing recording chambers (Physiologic Instruments, Inc., San Diego, CA) and superfused with HB-PS. One or more 6-channel or 8-channel Physiologic Instruments VCC MC6 or VCC MC8 epithelial voltage clamps were used in combination to record short circuit current (ISC) from up to 24 inserts simultaneously. Air was used to operate the bubble lifts to rapidly circulate solutions in each Ussing chamber half and to aerate the monolayers.
Inserts were voltage clamped at 0 m V to record the ISC. Bumetanide (20 μM) was added to the basolateral side of all inserts. Test conjugates prepared as DMSO (Sigma-Aldrich) stocks were added cumulatively and sequentially to the apical Ussing chamber halves with at least 3 minutes between each addition.
Time and volume matched additions of DMSO to the basolateral side of the test conjugate treated inserts and both sides of the vehicle treated inserts was made to maintain osmotic balance across the epithelia. Transepithelial resistance was monitored with small voltage steps. The assay was performed at 35±2° C.
ENaC current at each test conjugate concentration was calculated as the peak current change produced by each test conjugate treated insert minus the mean current change produced by the corresponding DMSO additions to time-matched vehicle controls inserts. Cumulative difference data was fit to a Hill equation of the form: […]
Where IEnaC is the ISC peak difference current measured at each test conjugate concentration [Test].
Regarding `CC(=O)N[C@@H](CCCCn1cc(CCCCCNC(N)=NC(=O)c2nc(Cl)c(N)nc2N)nn1)C(=O)NCCCCCC(=O)N[C@@H](C)C(=O)N[C@@H](CO)C(=O)N[C@@H](Cc1c[nH]cn1)C(=O)N[C@@H](CC(C)C)C(=O)N[C@@H](CCCNC(=N)N)C(=O)N[C@@H](CCCCN)C(=O)N[C@@H](CC(C)C)C(=O)N[C@@H](CCCNC(=N)N)C(=O)N[C@@H](CCCCN)C(=O)N[C@@H](CCCNC(=N)N)C(=O)N[C@@H](CC(C)C)C(=O)N[C@@H](CC(C)C)C(N)=O` [Conjugate 5], the IC50 was 30 nM. With `CC[C@H](C)[C@H](NC(=O)[C@H](Cc1ccc(O)cc1)NC(=O)[C@@H]1C[C@@H](O)CN1C(=O)[C@H](C)NC(=O)[C@H](CC(C)C)NC(=O)[C@H](C)NC(=O)CCCCCNC(=O)[C@H](CSC1CC(=O)N(CCCCNC(N)=NC(=O)c2nc(Cl)c(N)nc2N)C1=O)NC(C)=O)C(N)=O` (stereo partly drawn) [Conjugate 10, Ac-(AmilTC-C)-Ahx-ALA(Hyp)YI-NH2] (Ac-C(X2)[Ahx]ALA[Hyp]YI-NH2), the half-maximal inhibitory concentration (IC50) was determined as 490 nM. Turning to `CC(=O)N[C@@H](CSC1CC(=O)N(CCCCNC(N)=NC(=O)c2nc(Cl)c(N)nc2N)C1=O)C(=O)NCCCCCC(=O)N[C@@H](C)C(=O)N[C@@H](CO)C(=O)N[C@@H](Cc1c[nH]cn1)C(=O)N[C@@H](CC(C)C)C(=O)N[C@@H](CCCNC(=N)N)C(=O)N[C@@H](CCCCN)C(=O)N[C@@H](CC(C)C)C(=O)N[C@@H](CCCNC(=N)N)C(=O)N[C@@H](CCCCN)C(=O)N[C@@H](CCCNC(=N)N)C(=O)N[C@@H](CC(C)C)C(=O)N[C@@H](CC(C)C)C(N)=O` (stereo partly drawn) [Conjugate 11] (Ac-C(X2)[Ahx]ASHLRKLRKRLL-NH2), the IC50 was determined as 70 nM.

The same experiment, now with this note: NHBE cell monolayers, Ussing chamber, apical addition, 35±2° C.
For the compound “Ac-K-(Ahx)-ALA(Hyp)YI-NH2 (Ac-K[Ahx]ALA[Hyp]YI-NH2) [Peptide only Control 1, Peptide only control, reference compound]”, the “IC50 for the ENaC inhibition” value is on record as “Did not inhibit”.

Staying with this experiment, now noted: NHBE cell monolayers, Ussing chamber, apical addition, 35±2° C.; read-out: IC50 for the ENaC inhibition.
`CC[C@H](C)[C@H](NC(=O)[C@H](Cc1ccc(O)cc1)NC(=O)[C@@H]1C[C@@H](O)CN1C(=O)[C@H](C)NC(=O)[C@H](CC(C)C)NC(=O)[C@H](C)NC(=O)CCCCCNC(=O)[C@H](CCCCNC(N)=NC(=O)c1nc(Cl)c(N)nc1N)NC(C)=O)C(N)=O` [Conjugate 1, Ac-(AmilAC)K-(Ahx)-ALA(Hyp)YI-NH2] (HELM PEPTIDE1{[ac].[NC(=NC(=O)c1nc(Cl)c(N)nc1N)NCCCC[C@H](N[*:1])C(=O)[*:2]].[O=C(CCCCCN[*:1])[*:2]].A.L.A.[Hyp].Y.I.[am]}$$$$V2.0): the concentration for half-maximal inhibition (IC50) is 290 nM.

Still in this experiment, the particulars now being: relative to amiloride IC50.
On to `CC(=O)N[C@@H](CCCCn1cc(CCCCCNC(N)=NC(=O)c2nc(Cl)c(N)nc2N)nn1)C(=O)NCCCCCC(=O)N[C@@H](C)C(=O)N[C@@H](CO)C(=O)N[C@@H](Cc1c[nH]cn1)C(=O)N[C@@H](CC(C)C)C(=O)N[C@@H](CCCNC(=N)N)C(=O)N[C@@H](CCCCN)C(=O)N[C@@H](CC(C)C)C(=O)N[C@@H](CCCNC(=N)N)C(=O)N[C@@H](CCCCN)C(=O)N[C@@H](CCCNC(=N)N)C(=O)N[C@@H](CC(C)C)C(=O)N[C@@H](CC(C)C)C(N)=O` [Conjugate 5], for which the “fold more potent than amiloride (ENaC inhibition)” value is “about 10 fold”.
